Data from patent publication US7074447B2 (Laboratories Miret, S.A., priority 2001, dated 2006).

What was measured:
Assay in all cases: minimum inhibition concentration and Kull synergy index of LAE / potassium sorbate
Format in all cases: cell-based
[1] = system: Bacillus megaterium (CECT 44); conditions: pH 7.4, aqueous solutions
Method: (§1) The invention is now explained by a number of examples. In these examples LAE and sorbate alone and in a number of different combinations have been investigated against a number of bacterial preparations. For the analysis usually an internal method was used. Conditions and medium were Mueller Hinton broth (pH 7.4) or (pH 5.0) for bacteria, Sabouraud broth (pH 5.8) for yeast and Sabouraud medium for moulds. The interaction of the two components of the antimicrobial mixture is calculated according to the method described by Kull et al. (Kull […]. and Mayer R. L., Applied Microbiology, 1961; 6:538-541). According to this method the so-called synergy index is calculated according to the following formula: Synergy index […]. […] Again the effects of the components alone and in combination have been calculated using the same method as described at Example 1.

[2] = system: Staphylococcus aureus (ATCC 6538); conditions: for SI, synergy index: <1 synergism, 1 addition, >1 antagonism
Method: as §1

[3] = system: Cladosporium cladosporioides (ATCC 16022); conditions: for SI, synergy index: <1 synergism, 1 addition, >1 antagonism
Method: (§2) The invention is now explained by a number of examples. In these examples LAE and sorbate alone and in a number of different combinations have been investigated against a number of bacterial preparations. For the analysis usually an internal method was used. Conditions and medium were Mueller Hinton broth (pH 7.4) or (pH 5.0) for bacteria, Sabouraud broth (pH 5.8) for yeast and Sabouraud medium for moulds. The interaction of the two components of the antimicrobial mixture is calculated according to the method described by Kull et al. (Kull […]. and Mayer R. L., Applied Microbiology, 1961; 6:538-541). According to this method the so-called synergy index is calculated according to the following formula: Synergy index […]. […] The same method was used as described for example 1. […] Again the effects of the components alone and in combination have been calculated using the same method as described at Example 1.

[4] = system: Enterobacter aerogenes (ATCC 13048); conditions: for SI, synergy index: <1 synergism, 1 addition, >1 antagonism
Method: as §2

[5] = system: Escherichia coli (ATCC 8739); conditions: for SI, synergy index: <1 synergism, 1 addition, >1 antagonism
Method: as §2

[6] = system: Penicillium camemberti (CECT 2267); conditions: for SI, synergy index: <1 synergism, 1 addition, >1 antagonism
Method: as §2

[7] = system: Citrobacter intermedium (CECT 401); conditions: for SI, synergy index: <1 synergism, 1 addition, >1 antagonism
Method: as §2

[8] = system: Candida albicans (ATCC 10231); conditions: for SI, synergy index: <1 synergism, 1 addition, >1 antagonism
Method: as §2, with “Conditions and medium were Mueller Hinton broth (pH 7.4) or (pH 5.0) for bacteria, Sabouraud broth (pH 5.8) for yeast and Sabouraud medium for moulds.” left out

Structure (SMILES): CCCCCCCCCCCC(=O)N[C@@H](CCCNC(=N)N)C(=O)OCC.Cl [LAE, L-arginine, N^α-lauroyl-ethylester monohydrochloride]
- QLAE, minimum inhibition concentration of LAE as single antimicrobial [1]: 6.4
- Qlae, minimum inhibition concentration of LAE in the mixture [1]: 6.4
- Qlae/QLAE [1]: 1
- Qs, minimum inhibition concentration of potassium sorbate in the mixture [1]: 0
- Qs/QS [1]: 0.00
- SI, synergy index ([1]; <1 synergism, 1 addition, >1 antagonism): 1.00
- QLAE, minimum inhibition concentration of LAE as single antimicrobial ([2]; pH 5.0): 29.3
- Qlae, minimum inhibition concentration of LAE in the mixture ([2]; pH 5.0): 29.3
- Qlae/QLAE ([2]; pH 5.0): 1.00
- Qs, minimum inhibition concentration of potassium sorbate in the mixture ([2]; pH 5.0): 0
- Qs/QS ([2]; pH 5.0): 0.00
- SI, synergy index ([2]; pH 5.0): 1.00
- QLAE, minimum inhibition concentration of LAE as single antimicrobial ([2]; pH 7.4, aqueous solutions): 3.2
- Qlae, minimum inhibition concentration of LAE in the mixture ([2]; pH 7.4, aqueous solutions): 3.2
- Qlae/QLAE ([2]; pH 7.4, aqueous solutions): 1.0
- Qs, minimum inhibition concentration of potassium sorbate in the mixture ([2]; pH 7.4, aqueous solutions): 0
- Qs/QS ([2]; pH 7.4, aqueous solutions): 0.00
- SI, synergy index ([2]; pH 7.4, aqueous solutions): 1.00
- QLAE, minimum inhibition concentration of LAE as single antimicrobial ([3]; pH 5.0): 58.5
- Qlae, minimum inhibition concentration of LAE in the mixture ([3]; pH 5.0): 58.5
- Qlae/QLAE ([3]; pH 5.0): 1.00
- Qs, minimum inhibition concentration of potassium sorbate in the mixture ([3]; pH 5.0): 0
- Qs/QS ([3]; pH 5.0): 0.00
- SI, synergy index ([3]; pH 5.0): 1.00
- QLAE, minimum inhibition concentration of LAE as single antimicrobial ([3]; pH 7.4, aqueous solutions): 25.6
- Qlae, minimum inhibition concentration of LAE in the mixture ([3]; pH 7.4, aqueous solutions): 25.6
- Qlae/QLAE ([3]; pH 7.4, aqueous solutions): 1.00
- Qs, minimum inhibition concentration of potassium sorbate in the mixture ([3]; pH 7.4, aqueous solutions): 0
- Qs/QS ([3]; pH 7.4, aqueous solutions): 0.00
- SI, synergy index ([3]; pH 7.4, aqueous solutions): 1.00
- QLAE, minimum inhibition concentration of LAE as single antimicrobial ([4]; pH 5.0): 21.5
- Qlae, minimum inhibition concentration of LAE in the mixture ([4]; pH 5.0): 21.5
- Qlae/QLAE ([4]; pH 5.0): 1.00
- Qs, minimum inhibition concentration of potassium sorbate in the mixture ([4]; pH 5.0): 0
- Qs/QS ([4]; pH 5.0): 0.00
- SI, synergy index ([4]; pH 5.0): 1.00
- Qlae, minimum inhibition concentration of LAE in the mixture ([4]; pH 7.4, aqueous solutions): 68.2
- Qs, minimum inhibition concentration of potassium sorbate in the mixture ([4]; pH 7.4, aqueous solutions): 0
- Qs/QS ([4]; pH 7.4, aqueous solutions): 0.00
- SI, synergy index ([4]; pH 7.4, aqueous solutions): 1.00
- QLAE, minimum inhibition concentration of LAE as single antimicrobial ([5]; pH 5.0): 21.5
- Qlae, minimum inhibition concentration of LAE in the mixture ([5]; pH 5.0): 21.5
- Qlae/QLAE ([5]; pH 5.0): 1.00
- Qs, minimum inhibition concentration of potassium sorbate in the mixture ([5]; pH 5.0): 0
- Qs/QS ([5]; pH 5.0): 0.00
- SI, synergy index ([5]; pH 5.0): 1.00
- QLAE, minimum inhibition concentration of LAE as single antimicrobial ([5]; pH 7.4, aqueous solutions): 25.6
- Qlae, minimum inhibition concentration of LAE in the mixture ([5]; pH 7.4, aqueous solutions): 25.6
- Qlae/QLAE ([5]; pH 7.4, aqueous solutions): 1.00
- Qs, minimum inhibition concentration of potassium sorbate in the mixture ([5]; pH 7.4, aqueous solutions): 0
- Qs/QS ([5]; pH 7.4, aqueous solutions): 0.00
- SI, synergy index ([5]; pH 7.4, aqueous solutions): 1.00
- QLAE, minimum inhibition concentration of LAE as single antimicrobial ([6]; pH 5.0): 58.5
- Qlae, minimum inhibition concentration of LAE in the mixture ([6]; pH 5.0): 58.5
- Qlae/QLAE ([6]; pH 5.0): 1.00
- Qs, minimum inhibition concentration of potassium sorbate in the mixture ([6]; pH 5.0): 0
- Qs/QS ([6]; pH 5.0): 0.00
- SI, synergy index ([6]; pH 5.0): 1.00
- QLAE, minimum inhibition concentration of LAE as single antimicrobial ([6]; pH 7.4, aqueous solutions): 68.2
- Qlae, minimum inhibition concentration of LAE in the mixture ([6]; pH 7.4, aqueous solutions): 68.2
- Qlae/QLAE ([6]; pH 7.4, aqueous solutions): 1.00
- Qs, minimum inhibition concentration of potassium sorbate in the mixture ([6]; pH 7.4, aqueous solutions): 0
- Qs/QS ([6]; pH 7.4, aqueous solutions): 0.00
- SI, synergy index ([6]; pH 7.4, aqueous solutions): 1.00
- QLAE, minimum inhibition concentration of LAE as single antimicrobial ([7]; pH 5.0): 12.8
- Qlae, minimum inhibition concentration of LAE in the mixture ([7]; pH 5.0): 12.8
- Qlae/QLAE ([7]; pH 5.0): 1.00
- Qs, minimum inhibition concentration of potassium sorbate in the mixture ([7]; pH 5.0): 0
- Qs/QS ([7]; pH 5.0): 0.00
- SI, synergy index ([7]; pH 5.0): 1.00
- QLAE, minimum inhibition concentration of LAE as single antimicrobial ([7]; pH 7.4, aqueous solutions): 25.6
- Qlae, minimum inhibition concentration of LAE in the mixture ([7]; pH 7.4, aqueous solutions): 25.6
- Qlae/QLAE ([7]; pH 7.4, aqueous solutions): 1.00
- Qs, minimum inhibition concentration of potassium sorbate in the mixture ([7]; pH 7.4, aqueous solutions): 0
- Qs/QS ([7]; pH 7.4, aqueous solutions): 0.00
- SI, synergy index ([7]; pH 7.4, aqueous solutions): 1.00
- QLAE, minimum inhibition concentration of LAE as single antimicrobial ([8]; pH 5.0): 29.3
- Qlae, minimum inhibition concentration of LAE in the mixture ([8]; pH 5.0): 29.3
- Qlae/QLAE ([8]; pH 5.0): 1.00
- Qs, minimum inhibition concentration of potassium sorbate in the mixture ([8]; pH 5.0): 0
- Qs/QS ([8]; pH 5.0): 0.00
- SI, synergy index ([8]; pH 5.0): 1.00
- QLAE, minimum inhibition concentration of LAE as single antimicrobial ([8]; pH 7.4, aqueous solutions): 25.60
- Qlae, minimum inhibition concentration of LAE in the mixture ([8]; pH 7.4, aqueous solutions): 25.60
- Qlae/QLAE ([8]; pH 7.4, aqueous solutions): 1.00
- Qs, minimum inhibition concentration of potassium sorbate in the mixture ([8]; pH 7.4, aqueous solutions): 0.00
- Qs/QS ([8]; pH 7.4, aqueous solutions): 0.00
- SI, synergy index ([8]; pH 7.4, aqueous solutions): 1.00
